Test results from patent US8420657B2 (Novartis AG, priority 2008, dated 2013).

Tests used:
GST-JAK2(808-1132) = target: T1, GST-JAK2(808-1132) (Homo sapiens, UniProt O60674); experiment: JAK2 kinase assay (Caliper mobility shift, LabChip 3000); format: biochemical
T1 construct: GST-JAK2(808-1132); purchased Invitrogen (Carlsbad, USA) #4288
In short: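 Eight-point compound series (final 10–0.003 μM) tested on purchased GST-JAK2 kinase domain (808-1132). Peptide FITC-JAK3tide plus ATP reacted 60 min, 30 °C, then quenched with EDTA; turnover from charge-based separation of substrate and product.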

[1] = test system: JAK2-dependent nuclear translocation of STAT5-GFP in U-2 OS osteosarcoma cells; experiment: STAT5 nuclear translocation assay (Cellomics), rhEpo stimulated U-2 OS STAT5-GFP cells; format: cell-based; details: Homo sapiens, U2OS; STAT5 translocation pathway
In short: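 U-2 OS cells stably expressing STAT5a-GFP and EpoR pre-treated with compound (final 10 μM to 0.003 μM, 0.1% DMSO) for 30 min at 37° C., then stimulated 1 h with 5 U/ml rhEpo. Nuclear-cytoplasmic GFP differential quantified by automated imaging (≥1000 cells/well, Hoechst nuclear mask). IC50 from % translocation normalized to untreated and DMSO-stimulated controls.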

T1 sequence (O60674 808-1132): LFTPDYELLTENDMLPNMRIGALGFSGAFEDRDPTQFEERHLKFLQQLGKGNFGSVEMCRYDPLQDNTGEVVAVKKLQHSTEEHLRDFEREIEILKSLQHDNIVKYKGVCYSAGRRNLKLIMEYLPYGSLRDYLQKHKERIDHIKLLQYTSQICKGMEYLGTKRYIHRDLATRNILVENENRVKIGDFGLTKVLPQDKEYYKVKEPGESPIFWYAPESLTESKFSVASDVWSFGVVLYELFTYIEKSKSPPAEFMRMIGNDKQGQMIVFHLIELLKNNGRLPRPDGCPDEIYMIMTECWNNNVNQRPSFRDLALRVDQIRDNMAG

Row | SMILES | IC50 (GST-JAK2(808-1132)) | IC50 [1]
1 | CN1CCN(c2ccc(Nc3ncc4ccn(-c5cc(F)c(CN6CCOCC6)c(F)c5)c4n3)cn2)C(=O)C1 [Example 478, 1-{5-[7-(3,5-Difluoro-4-morpholin-4-ylmethyl-phenyl)-7H-pyrrolo[2,3-d]pyrimidin-2-ylamino]-pyridin-2-yl}-4-methyl-piperazin-2-one] | 5.5 nM | 51 nM
2 | Fc1cc(-n2ccc3cnc(Nc4ccc([C@H]5COCCN5CCOCc5ccccc5)cc4)nc32)cc(F)c1CN1CCOCC1 [Example 520, {4-[(S)-4-(2-Benzyloxy-ethyl)-morpholin-3-yl]-phenyl}-[7-(3,5-difluoro-4-morpholin-4-ylmethyl-phenyl)-7H-pyrrolo[2,3-d]pyrimidin-2-yl]-amine] | 57 nM | 543 nM
3 | CN(C)C1CCN(Cc2cc(Nc3ncc4ccn(-c5cc(F)c(CN6CCOCC6)c(F)c5)c4n3)ccn2)C1 (racemic) [Example 427, [7-(3,5-Difluoro-4-morpholin-4-ylmethyl-phenyl)-7H-pyrrolo[2,3-d]pyrimidin-2-yl]-[2-(3-dimethylamino-pyrrolidin-1-ylmethyl)-pyridin-4-yl]-amine] | ≤ 3 nM | 33.2 nM
4 | Fc1cc(-n2ccc3cnc(Nc4ccc(CN5CCNC(C(F)(F)F)C5)cc4)nc32)cc(F)c1CN1CCOCC1 (racemic) [Example 476, [7-(3,5-Difluoro-4-morpholin-4-ylmethyl-phenyl)-7H-pyrrolo[2,3-d]pyrimidin-2-yl]-[4-(3-trifluoromethyl-piperazin-1-ylmethyl)-phenyl]-amine] | ≤ 3 nM | 34.5 nM
5 | COC1CN(Cc2cc(Nc3ncc4ccn(-c5cc(F)c(CN6CCOCC6)c(F)c5)c4n3)ccc2C)C1 [Example 405, [7-(3,5-Difluoro-4-morpholin-4-ylmethyl-phenyl)-7H-pyrrolo[2,3-d]pyrimidin-2-yl]-[3-(3-methoxy-azetidin-1-ylmethyl)-4-methyl-phenyl]-amine] | ≤ 3 nM | 3.2 nM
6 | Cc1ccc(Nc2ncc3ccn(-c4cc(F)c(CN5CCOCC5)c(F)c4)c3n2)cc1CN1CCN(CCN(C)C)C(=O)C1 [Example 410, 4-{5-[7-(3,5-Difluoro-4-morpholin-4-ylmethyl-phenyl)-7H-pyrrolo[2,3-d]pyrimidin-2-ylamino]-2-methyl-benzyl}-1-(2-dimethylamino-ethyl)-piperazin-2-one] | ≤ 3 nM | 8.3 nM
7 | Cc1ccc(Nc2ncc3ccn(-c4ccc(C(=O)N5CCOCC5)c(F)c4)c3n2)cc1CN1CCN(C2CC2)CC1 [Example 366, (4-{2-[3-(4-Cyclopropyl-piperazin-1-ylmethyl)-4-methyl-phenylamino]-pyrrolo[2,3-d]pyrimidin-7-yl}-2-fluoro-phenyl)-morpholin-4-yl-methanone] | 8.6 nM | 65 nM

Now from value to molecule:

Row | IC50 (GST-JAK2(808-1132)) | IC50 [1] | SMILES
8 | ≤ 3 nM | 39.5 nM | OCCOc1ccc(Nc2ncc3ccn(-c4cc(F)c(CN5CCOCC5)c(F)c4)c3n2)cn1 [Example 518, 2-{5-[7-(3,5-Difluoro-4-morpholin-4-ylmethyl-phenyl)-7H-pyrrolo[2,3-d]pyrimidin-2-ylamino]-pyridin-2-yloxy}-ethanol]
9 | ≤ 3 nM | 3.2 nM | CN(C)CCN1CCN(c2ccc(Nc3ncc4ccn(-c5cc(F)c(CN6CCOCC6)c(F)c5)c4n3)cn2)CC1 [Example 465, [7-(3,5-Difluoro-4-morpholin-4-ylmethyl-phenyl)-7H-pyrrolo[2,3-d]pyrimidin-2-yl]-{6-[4-(2-dimethylamino-ethyl)-piperazin-1-yl]-pyridin-3-yl}-amine]
10 | ≤ 3 nM | 5.8 nM | Cc1cc(Nc2ncc3ccn(-c4cc(F)c(CN5CCOCC5)c(F)c4)c3n2)cnc1N1CCNCC1 [Example 487, [7-(3,5-Difluoro-4-morpholin-4-ylmethyl-phenyl)-7H-pyrrolo[2,3-d]pyrimidin-2-yl]-(5-methyl-6-piperazin-1-yl-pyridin-3-yl)-amine]
